Measured values published in patent US6900191B1, “1α-Hydroxyvitamin D5, its synthesis and use in cancer prevention” (OncQuest, Inc., priority 1997, dated 2005).
Entries after “also recorded” stand apart in the source; their conditions may differ.

Key:
[1] = system: breast cancer cells; assay: Growth of breast cancer cells in athymic mice injected with the analogue; type: in vivo, mouse; settings: injection of 8 mg, 3 × week/2 months, athymic mice bearing breast cancer cells
[2] = Calcemic activity: plasma calcium levels in vitamin D-deficient rats; type: in vivo, rat; settings: for increase in plasma calcium over vehicle-treated control group: 0.042 μg/kg per day; for increase in plasma calcium level compared with vehicle-treated rats: higher concentration, 0.25 μg/kg per day; for Plasma calcium: vitamin D-deficient rats, means +/− standard deviation
Protocol: Three-week-old Sprangue-Dawley male rats were obtained from the Holtzman Laboratory, Madison, Wis. Up to three rats were housed together in a polycarbonate cage. The animal cages were kept under yellow light. The rats (eight to 10 per group per concentration of both vitamin D analogues used) were fed a vitamin D-free diet containing 0.47 g/100 g calcium and 0.3 g/100 g phosphorus. After the rats had consumed this diet for 3 weeks, their plasma calcium levels were measured. […] Such rats were administered appropriate vitamin D analogues intragastrically for 14 days. At the end of this period, the plasma calcium levels were again measured. • 3. Induction Of Preneoplastic Lesions In Mammary Glands And Their Prevention By Vitamin D3 and D5 Analogues

[3] = Stability studies on storage; type: physicochemical; settings: 20° C.
[4] = system: T47D; assay: Growth of human breast cancer cell line; type: cell-based
[5] = system: VDR; assay: Immunohistochemistry of VDRs in normal mouse mammary glands; type: cell-based; settings: 3 days
Protocol: (§1) Normal mouse mammary glands were dissected and incubated with growth-promoting hormones either alone or in the presence of vitamin D analogues for only 3 days. In this experiment, the glands were not exposed to DMBA (see protocol described in the previous section). Instead, the glands were fixed in buffered formalin, and 5-μm-thick sections were prepared for histopathologic evaluations. The sections were mounted on adhesive-coated slides (Superfast: Fisher Scientific Co., Itasca, Ill.), dried at 60° C. for 1 hour, deparaffinized in xylene, […] in a series of alcohol, and finally washed with phosphate-buffered saline (PBS).
(§2) To block the nonspecific antibody reactions, we treated the tissue sections with 5% dried skim milk for 10 minutes and then incubated them with primary mouse antibody (either against VDR or against TGF-β1, both obtained from BioGenex Laboratories, San Ramon, Calif.) overnight at 0-4° C. […]
(§3) The tissues were counterstained with hematoxylin-eosin, dehydrated through graded series of alcohol and xylene, and finally mounted in Permount (Fisher Scientific Co.). Slides were evaluated for the presence or absence of the VDR or TGF-β1 and for the intensity of staining in the positively strained samples. • 5. […]

[6] = system: MCF1Oneo; assay: Growth of human breast cancer cell line; type: cell-based
[7] = system: mammary glands; assay: Toxic effects and structural differentiation of mammary glands in organ culture; type: cell-based, mouse; settings: for toxicity to the glands, overall: 0.1 μM or 1.0 μM tested; for toxicity to mammary glands, gland structure: 3 days
Protocol: as §1
To determine the effects of vitamin D analogues on the structural differentiation as well as their toxic effects on mammary glands, we incubated mammary glands with growth-promoting hormones for 3 days either alone or in the presence of 0.1 μM or 1.0 μM vitamin D analogues. The control mammary gland structure was represented by normal alveolar and ductal structures.

[8] = system: ZR 75; assay: Growth of human breast cancer cell line; type: cell-based
[9] = system: MCF-7; assay: Growth of human breast cancer cell line; type: cell-based
[10] = system: breast cancer cells; assay: Growth of analogue-differentiated breast cancer cells transplanted in athymic mice; type: in vivo, mouse; settings: cells differentiated with the analogue before transplantation
[11] = system: 7,12-dimethylbenz[a]anthracene-induced lesions in BALB/c mouse mammary glands; assay: DMBA-induced mammary lesions in mouse mammary gland organ culture; type: cell-based; settings: for number of glands exhibiting lesions / lesion formation, dependence on concentration: 0.01 μM to 10.0 μM; for No. of glands with lesions/total No. of glands treated: 10 days in culture; for % incidence of lesions: control 60.0
Protocol: Young, virgin BALB/c female mice, 3-4 weeks of age, were obtained from Charles River Laboratories, Wilmington, Mass. The mice were pretreated for 9 days with 17β-estradiol (1 μg in 0.1 mL saline per animal) and progesterone (1 mg in 0.1 mL saline per animal). They were then killed by cervical dislocation, and the thoracic pair of mammary glands was dissected out on silk rafts and incubated for 10 days in Waymouth MB752 medium (Life Technologies, Inc. [GIBCO BRL], Gauthersburg, Md.) containing the following growth-promoting hormones: insulin (5 μg/mL), prolactin (5 μg/mL), aldosterone (1 μg/mL), and hydrocortisone (1 μg/mL).
The carcinogen 7,12-dimethylbenz [a] anthracene (DMBA) at a dose of 2 μg/mL was added to the medium on day 3 for 24 hours to induce mammary lesions. The DMBA-containing medium was then removed, and the mammary glands were incubated for an additional 14 days with medium containing only insulin. […] These structures were termed “mammary lesions.”
The vitamin D analogues (ranging in concentration from 0.01 μM to 10.0 μM) were included in the medium during the first 10 days of the in vitro culture to determine if they lowered the incidence of mammary lesion formation. Throughout the culture period, the glands were maintained at 37° C. in an environment of 95% air and 5% CO2. At the end of the culture period, the glands were fixed in formalin, stained in alum-carmine solution, and evaluated for the presence or absence of mammary lesions. All hormones and chemicals were purchased from the Sigma Chemical Co., St. Louis, Mo. • 4. Immunohistochemistry Of VDRs And TGF-β1
To evaluate the efficacy of the newly synthesized vitamin D5 analogue in preventing mammary lesion formation, we incubated 15 mammary glands per group (135 glands in total) from BALB/c mice with appropriate hormones and exposed the glands to DMBA on day 3 for 24 hours (see “Experimental Equipment and Methods” section). The mammary glands were incubated for 10 days with the vitamin D analogues in concentrations ranging from 0.01 μM to 10.0 μM. The incidence of mammary lesions was calculated for each group and was reported as the ratio of the number of mammary glands showing lesions to the total number of mammary glands at risk.

[12] = system: BCA-4; assay: Growth of human breast cancer cell line; type: cell-based
[13] = system: HL-60 human leukemia cells; settings: cited from earlier work
[14] = system: TGF-β1; assay: Immunohistochemistry of TGF-β1 in normal mouse mammary glands; type: cell-based; settings: 1.0 μM, 3 days
Protocol: as §1, §2, §3

[15] = 0.042 μg/kg/day intragastrically for 14 days
[16] = 0.25 μg/kg/day intragastrically for 14 days

SMILES	increase in plasma calcium over vehicle-treated control group [2] [%]	increase in plasma calcium level compared with vehicle-treated rats [2] [%]	Plasma calcium [2, 15] [mg/dL]	Plasma calcium [2, 16] [mg/dL]	stability in solution [3]	storage stability in powder form [3]	toxicity to mammary glands, gland structure ([7]; 1.0 μM)	No. of glands with lesions/total No. of glands treated ([11]; 0.01 μM)	% incidence of lesions ([11]; 0.01 μM) [%]	No. of glands with lesions/total No. of glands treated ([11]; 0.1 μM)	% incidence of lesions ([11]; 0.1 μM) [%]	No. of glands with lesions/total No. of glands treated ([11]; 1.0 μM)	% incidence of lesions ([11]; 1.0 μM) [%]	No. of glands with lesions/total No. of glands treated ([11]; 10.0 μM)	% incidence of lesions ([11]; 10.0 μM) [%]	further results
C=C1/C(=C\C=C2/CCC[C@]3(C)[C@@H]([C@H](C)CC[C@@H](CC)C(C)C)CC[C@@H]23)C[C@@H](O)C[C@@H]1O [1α(OH)D5, 1α-Hydroxyvitamin D5]	11	50	6.0 ± 0.63	7.9 ± 1.5	one month	a year	retained the healthy structural characteristics	6/16	37.5	4/16	25.0	2/14	14.3	0/15	0.0	growth of cancer cells in the animals [1]: inhibited growth; calcemic effects compared with 1α,25(OH)2D3 ([2]; overall, both doses): overall lower calcemic effects; also recorded: much less calcemic; growth of cell line [4]: inhibited growth; expression of VDRs (staining) in mammary epithelial cells ([5]; 0.1 μM (lower concentration)): much less; expression of VDRs (staining) in mammary epithelial cells ([5]; 1.0 μM): induced expression of VDRs; growth of cell line [6]: inhibited growth; toxicity to the glands, overall [7]: did not result in any toxicity; toxicity to the glands, overall ([7]; listed as vitamin D5 analogue): considerably less toxic than the vitamin D3 analogue; growth of cell line [8]: inhibited growth; growth of cell line [9]: inhibited growth; growth of differentiated cells when transplanted in athymic mice [10]: did not grow; number of glands exhibiting lesions / lesion formation, dependence on concentration [11]: dose-related decrease; number of glands exhibiting lesions / lesion formation, dependence on concentration ([11]; listed as vitamin D5 analogue): inhibited the lesion formation in a dose-dependent manner; percent inhibition of formation of lesions ([11]; 10.0 μM): 100%; growth of cell line [12]: inhibited growth
C=C1/C(=C/C=C2\CCC[C@]3(C)C([C@H](C)CC#CC(O)(C(F)(F)F)C(F)(F)F)=CC[C@@H]23)C[C@@H](O)C[C@@H]1O [Ro24-5531, 1α, 25-dihydroxy-16-ene-23-yne-26,27-hexafluorocholecalciferol]																expression of TGF-β1 and its type 2 receptors [13]: induced expression
C=C1/C(=C\C=C2/CCC[C@]3(C)[C@@H]([C@H](C)CCCC(C)(C)O)CC[C@@H]23)C[C@@H](O)C[C@@H]1O [1α,25(OH)2D3, 1α,25-dihydroxyvitamin D3, reference compound]	50	87	8.1 ± 1.2	10.1 ± 1.8	one month	a year	disintegration of ducts and structural toxicity to the glands	two of 14	14.3	0/15	0.0	0/15	0.0	0/15	0.0	Plasma calcium ([2]; 0.042 μg/kg/day intragastrically for 14 days, listed as 1α, 25(OH)2D3): 8.1 ± 1.2 mg/dL; Plasma calcium ([2]; 0.25 μg/kg/day intragastrically for 14 days, listed as 1α, 25 (OH)2D3): 10.1 ± 1.8 mg/dL; induction of TGF-β1 in mammary epithelial cells [14]: much reduced; toxicity to mammary glands, gland structure ([7]; 0.1 μM): did not show toxicity; concentrations toxic to the glands ([7]; 3 days in organ culture): ≥ 1000 nM; No. of glands with lesions/total No. of glands treated ([11]; 0.01 μM, listed as 1,25α-dihydroxyvitamin D3): 2/14; mammary lesions ([11]; concentrations higher than 0.01 μM): no mammary lesions were observed
